This is an account of results in patent US20230312584A1, “SALT OF NUCLEOSIDE ANALOG, AND CRYSTAL FORM, PHARMACEUTICAL COMPOSITION AND USE THEREOF” (priority 2020, published 2023).

The nature of one data set: Hygroscopicity test. The data set is classed as physicochemical. The following applies: 25° C., RH80%, 24 hours. The method, then:
An appropriate amount of a test product is taken and spread in a glass-stoppered weighing bottle that has been placed in an artificial climate box (temperature is 25° C.±1° C., relative humidity is 80%±2%) for 24 hours. The weighing bottle is opened, put together with the stopper in the artificial climate box (the temperature is 25° C.±1° C., the relative humidity is 80%±2%) for 24 hours, and then taken out. The moisture content of the test product before and after being placed in the artificial climate box is measured, and the hygroscopicity is measured by comparing the change in moisture content.

Data set [1] is classed as physicochemical. The method, then:
The test product is placed in suitable clean containers, and then placed under conditions of high temperature (80° C.), high humidity (25° C., relative humidity 92.5%), and light (light intensity 4500±500 1× and 90 μw/cm^2), respectively, for 7 days, and samples are taken on the 7th day and tested according to the stability inspection items.

For data set [2], the system named is a variety of other RNA viruses. To be noted: according to experimental tests; compounds of CN 202010313870.X; cited from earlier work.
A further data set in a line: physchem. The data set is classed as physicochemical. The following applies: for Solubility in water: 30 min. The method, then: About 10 mg of the test product is taken and put in a 1.5 mL sample tube, to which 1 mL of deionized water is added, and then the sample tube is placed in a constant temperature mixer and shaken at 37° C. for 30 minutes; after shaking, the sample tube is placed in a centrifuge to undergo centrifugation for 2 minutes. Then, 500 μL of the supernatant is taken and diluted with acetonitrile to an appropriate concentration, which is used as a test sample solution for HPLC analysis.
An appropriate amount of sample was weighed and put in a glass test tube, to which a selected solvent was gradually added. The clarification process was observed.

Another data set relates to SARS-CoV-2. To be noted: according to experimental tests; compounds of CN 202010313870.X; cited from earlier work.

In brackets after ≈: the same amount, converted by molar mass. Where a name gives a salt, the structure may show the parent alone. Read-outs that look alike come from different tables or passages of the source.

With `Cl.[2H]c1cc([C@]2(C#N)O[C@H](COC(=O)C(C)C)[C@@H](OC(=O)C(C)C)[C@H]2OC(=O)C(C)C)n2ncnc(N)c12` [Hydrochloride of Compound Z, (2R,3R,4R,5R)-2-(4-aminopyrrolo[2,1-f][1,2,4]triazin-7-yl-5-d)-2-cyano-5-(isobutyryloxymethyl)tetrahydrofuran-3,4-diyl bis(2-methylpropanoate) hydrochloride], the “increase in moisture content” value in “Hygroscopicity test” was “moisture content of <0.1%”. Moreover, the Hygroscopicity entry in “Hygroscopicity test” (listed as hydrochloride of Compound Z, hydrochloride) is reported as “no hygroscopicity”.
For `[2H]c1cc([C@]2(C#N)O[C@H](COC(=O)C(C)C)[C@@H](OC(=O)C(C)C)[C@H]2OC(=O)C(C)C)n2ncnc(N)c12` [Nitrate of Compound Z, (2R,3R,4R,5R)-2-(4-aminopyrrolo[2,1-f][1,2,4]triazin-7-yl-5-d)-2-cyano-5-(isobutyryloxymethyl)tetrahydrofuran-3,4-diyl bis(2-methylpropanoate) nitrate], the Stability entry in data set [1] (7 days) is reported as “(80° C.), the solid melted, decomposed,”. Moreover, in “Hygroscopicity test” (listed as nitrate of Compound Z, nitrate), the Hygroscopicity entry is recorded as “no hygroscopicity”. Also, the “increase in moisture content” value in “Hygroscopicity test” (nitrate) is reported as “moisture content of <0.1%”.
Take `CC(C)C(=O)OC[C@H]1O[C@@](C#N)(c2ccc3c(N)ncnn23)[C@H](OC(=O)C(C)C)[C@@H]1OC(=O)C(C)C` [Compound W, (2R,3R,4R,5R)-2-(4-aminopyrrolo[2,1-f][1,2,4]triazin-7-yl)-2-cyano-5-(isobutyryloxymethyl)tetrahydrofuran-3,4-diyl bis(2-methylpropanoate)]: the “inhibitory effect on a variety of other RNA viruses” value in data set [2] was “good inhibitory effect”. In “physchem”, the water solubility entry is recorded as “poor water solubility”. Besides, the anti-SARS-CoV-2 activity entry in the data set on SARS-CoV-2 is on record as “significant”.
`[2H]c1cc([C@]2(C#N)O[C@H](COC(=O)C(C)C)[C@@H](OC(=O)C(C)C)[C@H]2OC(=O)C(C)C)n2ncnc(N)c12` [Mesylate of Compound Z, (2R,3R,4R,5R)-2-(4-aminopyrrolo[2,1-f][1,2,4]triazin-7-yl-5-d)-2-cyano-5-(isobutyryloxymethyl)tetrahydrofuran-3,4-diyl bis(2-methylpropanoate) mesylate] gave a Solubility in water in the data set “physchem” of 464 µg/mL. Further, the Stability entry in data set [1] is “decomposed obviously and had a peculiar smell”. For the same molecule, the “increase in moisture content” value in “Hygroscopicity test” is recorded as “moisture content of <0.2%”. Moreover, the Hygroscopicity entry in “Hygroscopicity test” (listed as mesylate of Compound Z, mesylate) is recorded as “no hygroscopicity”.
The solubility is the concentration that dissolves in the medium under given conditions. A higher solubility goes with a readily soluble substance. In the data set “physchem” (37 °C, water, thermodynamic from solid, Solubility in water), `O=C(O)/C=C\C(=O)O.[2H]c1cc([C@]2(C#N)O[C@H](COC(=O)C(C)C)[C@@H](OC(=O)C(C)C)[C@H]2OC(=O)C(C)C)n2ncnc(N)c12` [Maleate of Compound Z, (2R,3R,4R,5R)-2-(4-aminopyrrolo[2,1-f][1,2,4]triazin-7-yl-5-d)-2-cyano-5-(isobutyryloxymethyl)tetrahydrofuran-3,4-diyl bis(2-methylpropanoate) maleate] came in with a solubility at 30 min of 351 µg/mL. Besides, the “increase in moisture content” value in “Hygroscopicity test” is listed as “moisture content of <0.1%”. Moreover, the Hygroscopicity result in “Hygroscopicity test” (listed as maleate of Compound Z, maleate) is “no hygroscopicity”.
For `[2H]c1cc([C@]2(C#N)O[C@H](COC(=O)C(C)C)[C@@H](OC(=O)C(C)C)[C@H]2OC(=O)C(C)C)n2ncnc(N)c12` [Compound Z, (2R,3R,4R,5R)-2-(4-aminopyrrolo[2,1-f][1,2,4]triazin-7-yl-5-d)-2-cyano-5-(isobutyryloxymethyl)tetrahydrofuran-3,4-diyl bis(2-methylpropanoate)], the “inhibitory effect on a variety of other RNA viruses” value in data set [2] is recorded as “good inhibitory effect”. In the data set “physchem”, the water solubility result is “poor water solubility” and the Solubility in water came to 29 µg/mL (≈ 57.7 µM). Moreover, the anti-SARS-CoV-2 activity result with SARS-CoV-2 is recorded as “significant”.
On to `Br.CC(C)C(=O)OC[C@H]1O[C@@](C#N)(c2ccc3c(N)ncnn23)[C@H](OC(=O)C(C)C)[C@@H]1OC(=O)C(C)C` [Hydrobromide of Compound W, (2R,3R,4R,5R)-2-(4-aminopyrrolo[2,1-f][1,2,4]triazin-7-yl)-2-cyano-5-(isobutyryloxymethyl)tetrahydrofuran-3,4-diyl bis(2-methylpropanoate) hydrobromide], for which, in data set [1] (7 days), the Stability entry is reported as “Good stability under high temperature (80° C.), high”. Moreover, in “Hygroscopicity test”, the Hygroscopicity entry is reported as “no hygroscopicity” and the “increase in moisture content” value is “RH80%, with an increase in moisture content of <0.1%,”.
